Test results as given in US8227491B2, “5-(3,4-dichloro-phenyl)-N-(2-hydroxy-cyclohexyl)-6-(2,2,2-trifluoro-ethoxy)-nicotinamide and salts thereof” (Hoffmann-La Roche Inc., priority 2009, dated 2012).

Columns and labels:
[1] = target: T1, human cannabis CB2 receptor (Homo sapiens, UniProt P34972); experiment: CB2 receptor affinity, [3H]-CP-55,940 radioligand binding on HEK cell membranes; details: Ki calculated from IC50 (Cheng-Prusoff)
T1 construct: expressed in transfected cells; host or cells: human embryonic kidney (HEK) cells, Semliki Forest Virus system, membrane preparations
Description: (§1) The affinity of the compounds of the invention for cannabinoid CB2 receptors was determined using membrane preparations of human embryonic kidney (HEK) cells in which the human cannabis CB2 receptor is transiently transfected using the Semliki Forest Virus system in conjunction with [3H]-CP-55,940 as radioligand. After incubation of freshly prepared cell membrane preparation with the [3H]-ligand, with or without addition of compounds of the invention, separation of bound and free ligand was performed by filtration over glass fiber filters. Radioactivity on the filter was measured by scintillation counting.
(§2) Ki values were calculated from the IC50 using the Cheng-Prusoff equation.

HDL cholesterol levels = experiment: Effects on plasma lipid levels in hamsters; format: in vivo; details: male hamsters, 30 mg/kg p.o. once daily for five days, blood 2 hours after final treatment, 4 hour-fasted
Description: Efficacy of compounds in modulating plasma lipid levels was determined in hamsters after 5 days of daily administration of compounds. Male hamsters of 6-8 weeks of age were used in the studies. After one week of acclimation, blood samples were collected from 4 hour-fasted animals for plasma lipid determination. Animals were then assigned to treatment groups based on HDL-cholesterol levels. Compounds were administered by gavage, once daily for five days. Control animals received vehicle alone. Blood was collected on day five from 4 hour-fasted hamsters, 2 hours after a final treatment, for plasma lipid analysis. Total cholesterol, HDL-cholesterol, LDL-cholesterol, and triglycerides were determined using colorimetric enzymatic assays (Roche Diagnostic GmbH, Mannheim, Germany). HDL-cholesterol was also determined after selective precipitation of HDL from plasma by standard procedures.

[2] = target: T2, human cannabis CB1 receptor (Homo sapiens, UniProt P21554); experiment: CB1 receptor affinity, [3H]-CP-55,940 radioligand binding on HEK cell membranes; details: Ki calculated from IC50 (Cheng-Prusoff)
T2 construct: expressed in transfected cells; host or cells: human embryonic kidney (HEK) cells, Semliki Forest Virus system, membrane preparations
Description: as §1, with “cannabinoid” for “cannabinoid CB2”, “CB1” for “CB2”
as §2

T2 sequence (P21554 whole entry): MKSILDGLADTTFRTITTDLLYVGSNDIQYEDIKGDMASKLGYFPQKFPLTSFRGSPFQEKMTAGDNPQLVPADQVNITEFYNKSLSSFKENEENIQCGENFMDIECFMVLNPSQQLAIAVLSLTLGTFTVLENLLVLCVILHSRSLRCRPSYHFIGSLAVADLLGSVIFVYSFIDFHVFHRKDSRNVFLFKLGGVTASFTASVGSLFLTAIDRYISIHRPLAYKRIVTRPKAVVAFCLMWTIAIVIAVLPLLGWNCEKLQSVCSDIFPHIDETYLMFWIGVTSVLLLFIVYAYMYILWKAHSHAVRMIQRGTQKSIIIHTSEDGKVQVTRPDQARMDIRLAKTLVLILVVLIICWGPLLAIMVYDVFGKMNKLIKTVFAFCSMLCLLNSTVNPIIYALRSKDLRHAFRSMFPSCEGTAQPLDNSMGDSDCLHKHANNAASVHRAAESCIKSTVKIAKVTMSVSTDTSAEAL
T1 sequence (P34972 whole entry): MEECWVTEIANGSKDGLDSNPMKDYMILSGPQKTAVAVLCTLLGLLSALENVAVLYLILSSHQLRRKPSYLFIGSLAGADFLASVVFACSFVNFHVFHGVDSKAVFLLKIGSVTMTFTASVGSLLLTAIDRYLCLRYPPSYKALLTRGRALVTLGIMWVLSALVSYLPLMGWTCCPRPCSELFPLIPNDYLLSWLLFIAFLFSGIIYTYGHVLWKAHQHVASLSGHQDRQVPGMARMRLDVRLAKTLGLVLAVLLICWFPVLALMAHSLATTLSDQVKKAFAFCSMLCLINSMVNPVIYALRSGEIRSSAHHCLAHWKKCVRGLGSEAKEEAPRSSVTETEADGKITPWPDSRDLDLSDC

| SMILES | Ki [1] [µM] | HDL Cholesterol levels [as % compared to control] @ 30 mg/kg p.o. of compound (HDL cholesterol levels) | Ki [2] [µM] |
| --- | --- | --- | --- |
| O=C(N[C@H]1CCCC[C@H]1O)c1cnc(OCC(F)(F)F)c(-c2ccc(Cl)c(Cl)c2)c1 [5-(3,4-Dichloro-phenyl)-N-((1S,2R)-2-hydroxy-cyclohexyl)-6-(2,2,2-trifluoro-ethoxy)-nicotinamide] | > 10 | +121.9 ± 21.0% | > 10 |
| O=C(N[C@@H]1CCCC[C@H]1O)c1cnc(OCC(F)(F)F)c(-c2ccc(Cl)c(Cl)c2)c1 [5-(3,4-dichloro-phenyl)-N-((1R,2R)-2-hydroxy-cyclohexyl)-6-(2,2,2-trifluoro-ethoxy)-nicotinamide] | > 10 | +77.9 ± 11.1% | 1.3 |
| O=C(N[C@@H]1CCCC[C@H]1O)c1cnc(OCC(F)(F)F)c(-c2ccc(Cl)cc2)c1 [5-(4-Chloro-phenyl)-N-((1R,2R)-2-hydroxy-cyclohexyl)-6-(2,2,2-trifluoro-ethoxy)-nicotinamide, reference compound] | > 10 | +103.8 ± 14.7% | 0.028 |
